Experimental data: patent publication US20200405752A1, “ANTITUMOR AGENT, ANTITUMOR EFFECT ENHANCER, AND ANTITUMOR KIT” (FUJIFILM Corporation, priority 2018, published 2020)
pIC50: −log10 of the molar value.

Assays:
[1] = system: human cholangiocarcinoma cell line TFK-1 (spheroid culture); test: Cell viability (CellTiter Glo) of TFK-1 in spheroid culture in combination with cisplatin; assay type: cell-based; settings: for viability at 0.001 µM / viability at 0.003 µM / viability at 0.01 µM / viability at 0.03 µM / viability at 0.1 µM / viability at 0.3 µM / viability at 1 µM / viability at 3 µM / viability at 10 µM / pIC50: Homo sapiens; for viability at 0.001 µM / viability at 0.003 µM / viability at 0.01 µM / viability at 0.03 µM / viability at 0.1 µM / viability at 0.3 µM / viability at 1 µM / viability at 3 µM / viability at 10 µM: 72 h, TFK-1 spheroid, with cisplatin 10 μmol/L, 3 days; for viability at 0.001 µM: test substance 1.0 nM; for viability at 0.003 µM: test substance 3.0 nM; for viability at 0.01 µM: test substance 10.0 nM; for viability at 0.03 µM: test substance 30.0 nM; for viability at 0.1 µM: test substance 100.0 nM; for viability at 0.3 µM: test substance 300.0 nM; for viability at 1 µM: test substance 1000.0 nM; for viability at 3 µM: test substance 3000.0 nM; for viability at 10 µM: test substance 10000.0 nM; for pIC50 / CI: TFK-1 spheroid culture; for CI: combination with cisplatin
Excerpt: (§1) On the combinational effect of the embodiment of the invention, the results of evaluation using a combination index (CI) which is a quantitative index of the combinational effect are shown. The CI can be calculated by the following equation according to Cancer Research, 2010, Vol. 70, pp. 440 to 446.
(§2) That is, in a case where the drugs to be used in combination are drug 1 and drug 2, the CI at a certain drug concentration is
(§3) CI={(cell viability in case of using drug 1 and drug 2 in combination)/100}/{[(cell viability in case of using drug 1)/100]×[(cell viability in case of using drug 2)/100]}
Evaluation of Antitumor Activity Against Cholangiocarcinoma Cell Line TFK-1 by Combined Use of Cisplatin in Spheroid Culture
(§4) Gemcitabine, cisplatin, and methanesulfonate of Compound A were used as test substances.
(§5) Gemcitabine hydrochloride (manufactured by Plantex Co., Ltd.) dissolved in dimethyl sulfoxide (DMSO) was used as gemcitabine. Cisplatin (Cat. #039-20091, manufactured by Wako Pure Chemical Industries, Ltd.) dissolved in DMSO was used as cisplatin.
(§6) Human cholangiocarcinoma cell line TFK-1 cells were subcultured in RPMI-1640 medium supplemented with 10% serum (Cat. #10437-028, manufactured by Thermo Fisher Scientific Inc.). During this test, all cell cultures were carried out in a CO2 incubator (set to 37° C. and 5% CO2, saturated with water vapor). The culture was diluted with 10% serum-supplemented medium to a cell density of 5000 cells/well/100 μL, and seeded on an Ultra-Low Attachment 96-well plate (Cat. #7007, manufactured by Corning Incorporated). The cells were cultured for 4 days to form spheroids.
(§7) The methanesulfonate of Compound A and gemcitabine were dissolved in DMSO to prepare 10 mmol/L DMSO solutions thereof. The thus-prepared DMSO solutions were diluted sequentially with DMSO to prepare DMSO solutions having a final treatment concentration of 1000-fold dilution. Cisplatin was dissolved in DMSO to prepare a 100 mmol/L DMSO solution. The thus-prepared DMSO solution of cisplatin was diluted with DMSO to prepare a DMSO solution having a final treatment concentration of 5000-fold dilution. Further, the DMSO solution of cisplatin was diluted with 10% serum-supplemented medium to prepare a cisplatin-containing medium having a final treatment concentration of 10-fold dilution. The DMSO diluted solutions of Compound A and gemcitabine were diluted with the cisplatin-containing medium to prepare treatment liquids having a final treatment concentration of 10-fold dilution. Compound A and gemcitabine were used with a maximum concentration of 10 μmol/L at a common ratio of 1/3 and 9 concentrations in combination with cisplatin (10 μmol/L).
(§8) 10 μL of Compound A or gemcitabine diluted with the cisplatin-containing medium was added to each well. In addition, a group in which only a solvent containing no drug was added to wells in which cells were seeded (positive control), and a group in which only a solvent containing no drug was added to wells containing only a medium (negative control) were provided. All groups were set to n=3 well.
(§9) The cells were cultured for 3 days after the addition of the drug, and the cell viability was evaluated using a CellTiter Glo (registered trademark) Reagent (Cat. #G7570, manufactured by Promega Corporation) with the intracellular ATP level as an index. The concentration that inhibits cell viability by 50% (IC50 value) was calculated using XLFit software Ver.3 (registered trademark, manufactured by CTC Laboratory Systems Corporation).
(§10) The cell viability of each well was determined with the luminescence signal level of the negative control being 0% cell viability and the luminescence signal level of the positive control being 100% cell viability. The average value and standard deviation of the cell viability of each treatment group were calculated to prepare Table 9.

[2] = system: cholangiocarcinoma cell line HuCC-T1 (spheroid culture); test: Cell viability (CellTiter Glo) of HuCC-T1 in spheroid culture in combination with cisplatin; assay type: cell-based, human; settings: for viability at 0.001 µM / viability at 0.003 µM / viability at 0.01 µM / viability at 0.03 µM / viability at 0.1 µM / viability at 0.3 µM / viability at 1 µM / viability at 3 µM / viability at 10 µM / pIC50: Homo sapiens; for viability at 0.001 µM / viability at 0.003 µM / viability at 0.01 µM / viability at 0.03 µM / viability at 0.1 µM / viability at 0.3 µM / viability at 1 µM / viability at 3 µM / viability at 10 µM: HuCCT-1, 72 h, HuCC-T1 spheroid, with cisplatin 10 μmol/L, 3 days; for viability at 0.001 µM: test substance 1.0 nM; for viability at 0.003 µM: test substance 3.0 nM; for viability at 0.01 µM: test substance 10.0 nM; for viability at 0.03 µM: test substance 30.0 nM; for viability at 0.1 µM: test substance 100.0 nM; for viability at 0.3 µM: test substance 300.0 nM; for viability at 1 µM: test substance 1000.0 nM; for viability at 3 µM: test substance 3000.0 nM; for viability at 10 µM: test substance 10000.0 nM; for pIC50: HuCCT-1, in combination with cisplatin (10 μmol/L); for pIC50 / CI: HuCC-T1 spheroid culture; for CI: combination with cisplatin
Excerpt: as §1, §2, §3
Evaluation of Antitumor Activity Against Cholangiocarcinoma Cell Line HuCC-T1 by Combined Use of Cisplatin in Spheroid Culture
as §4, §5
as §6, with “The” for “Human”, “HuCC-T1” for “TFK-1”
as §7, §8, §9
as §10, with “10.” for “9.”

Row | SMILES | viability at 0.001 µM [1] | viability at 0.003 µM [1] | viability at 0.01 µM [1] | viability at 0.03 µM [1] | viability at 0.1 µM [1] | viability at 0.3 µM [1] | viability at 1 µM [1] | viability at 3 µM [1] | viability at 10 µM [1] | CI [1] | viability at 0.001 µM [2] | viability at 0.003 µM [2] | viability at 0.01 µM [2] | viability at 0.03 µM [2] | viability at 0.1 µM [2] | viability at 0.3 µM [2] | viability at 1 µM [2] | viability at 3 µM [2] | viability at 10 µM [2] | pIC50 [2] | other results
1 | Nc1ccn([C@@H]2O[C@H](CO)[C@@H](O)C2(F)F)c(=O)n1 [Gemcitabine] | 97% | 97% | 97% | 89% | 90% | 83% | 83% | 77% | 66% | 0.78 | 94% | 96% | 94% | 90% | 88% | 84% | 79% | 73% | 50% | ≤ 5.00 | pIC50 ([1]; in combination with cisplatin (10 μmol/L)): ≤ 5.00; CI [2]: 0.79
2 | Nc1ccn([C@@H]2S[C@H](CO)[C@@H](O)[C@@H]2F)c(=O)n1 [Compound A, 1-(2-deoxy-2-fluoro-4-thio-β-D-arabinofuranosyl)cytosine] | 97% | 101% | 96% | 91% | 90% | 65% | 23% | 14% | 9% | 0.13 | 95% | 93% | 87% | 77% | 58% | 41% | 36% | 35% | 34% | 6.78 | pIC50 ([1]; in combination with cisplatin (5 μmol/L)): 6.33; CI [2]: 0.42
